Measurements from patent US12134610B2, “Somatostatin subtype-2 receptor (SST2R) targeted therapeutics and uses thereof” (priority 2022, dated 2024).
Like-named read-outs stand apart in the source and are kept apart here.

Tests used:
Assay type in all cases: cell-based
[1] = system: NCI-H524 (ATCC) human small cell lung cancer cells
Experimental: SMDCs of the present invention were assessed in an in vitro assay evaluating the inhibition of cell proliferation. NCI-H524 (ATCC) human small cell lung cancer cells were plated in 96-well V-bottom plates (Costar) at a concentration of 5,000 cells/well. 24 h later, the cells were treated for 2 h with a SMDC. SMDC starting dose was 1 uM and two-fold serial dilutions were done for a total of 11 points. After 2 h of treatment, cells were spun down, and the drug-containing media was removed, and fresh complete media was added and used to resuspend the cells, which were spun again. After removal of the media, the cells were resuspended in complete medium and incubated for an additional 70 h. Cell proliferation was assessed using the CellTiter Glo Assay according to the standard protocol (Promega). Luminescence was measured using a TECAN plate reader. Percent proliferation inhibition was calculated using the following formula: % inhibition=(Luminescence Control−Luminescence Treatment)/Luminescence Control*100. IC50 curves were generated using the nonlinear regression analysis (four-parameter) with GraphPad Prism 9.

SST2 = target: T1, SST2 (Homo sapiens, UniProt P30874); assay: PathHunter CHO-K1 SST2 internalization assay; conditions: PathHunter CHO-K1 SST2, 90 min
T1 construct: host or cells: PathHunter CHO-K1 SST2 cells
Experimental: SMDCs of the present invention were assessed in vitro using the human PathHunter CHO-K1 SST2 β-arrestin2 and PathHunter CHO-K1 SST2 Internalization Assays from DiscoverX. The CHO-K cells were seeded in 20 μLs of cell culture medium in a white-walled 384 well tissue culture-compatible plate at a density of 2500 cells/well. After a 48-hour incubation, cells were treated with 5 μLs of a 1:3 serially diluted SST2 SMDC prepared at 5× concentration with a final top compound concentration of 10 uM for 90 min at 37 C and in 5% CO2. 11 dilutions were tested as well as one treatment that was compound free. After incubation, the media containing treatments were discarded and 20 μL of a working solution of Beta-Glo from Promega Beta-Glo Assay System was added to each well. The plate was then incubated for 60 min at room temperature in the dark. Luminescence was measured using a Tecan plate reader. IC50 curves were generated using the nonlinear regression analysis (four-parameters) with GraphPad Prism 9. Results were the average of duplicates and are corrected for background.

[2] = target: T2, human somatostatin receptor subtype 2 (Homo sapiens, UniProt P30874); assay: Functional cAMP assay for SSTR2 agonists (HTRF) in CHO-K1 cells; conditions: CHO-K1 cells stably expressing human SST2, 20 min
T2 construct: expressed in transfected cells
From the text: General overview: All five SSTR subtypes are Gi coupled G-protein coupled receptors (GPCRs) that lead to decreases in intracellular cyclic AMP (cAMP) when activated by an agonist. Therefore, measurement of intracellular cAMP levels can be used to assess whether compounds of the invention are agonists of SSTR subtypes (John Kelly, Troy Stevens, W. Joseph Thompson, and Roland Seifert, Current Protocols in Pharmacology, 2005, 2.2.1-2.2). One example of an intracellular cAMP assay is described below.
Functional Assay for SSTR2 Agonists
Four days prior to the assay, 2,000 Chinese hamster ovary cells (CHO-K1, ATCC #CCL-61) stably expressing the human somatostatin receptor subtype 2 are plated in each well of a 96-well tissue culture-treated plate in Ham's F12 growth media (ThermoFisher #10-080-CM) supplemented with 10% donor bovine serum (Gemini Bio-Products #100-506), 100 U/mL penicillin; 100 ug/mL streptomycin; 2 mM L-glutamine (Gemini Bio-Products #400-110) and 0.2 mg/mL hygromycin B (GoldBio #31282-04-9). The cells are cultured at 37° C., 5% CO2 and 95% humidity. cAMP is measured with HTRF dynamic cAMP assay (Cisbio, #62AM5PEJ) per manufacturer's instructions. On the day of the assay, the media is aspirated and the cells are treated with 50 μL of stimulation buffer supplemented with 10.2 mM 3-Isobutyl-1-methylxanthine (IBMX, Millipore Sigma #15879) and 1.6 μM NKH477 (Tocris #1603), plus various dilutions of SMDCs of the present invention. The cells are incubated for 20 minutes at 37° C. (the final concentration of the compounds of the invention are typically 0-10,000 nM). The cells are treated with 50 μL of lysis buffer (HRTF cAMP kit, Cisbio) and incubated at room temperature for 30 minutes with rotary shaking at 600 rpm, and then diluted with 150 μL of stimulation buffer and shaken for an additional five minutes at 300 rpm. The lysate is transferred to 384-well plates and incubated for 1-24 hours at room temperature, and cAMP accumulation is detected by d2-labeled cAMP and Anti-cAMP-Cryptate. The time-resolved fluorescent signal is read using a m1000 Pro (Tecan) or CLARIOStar (BMG Labtech) microplate reader, where the samples are excited with light at 340 nm and emission light is measured at 620 nm and 665 nm. The data is expressed as a calculation of the fluorescence ratio (665 nm/620 nm). The intracellular cAMP concentrations are calculated by regression to a standard curve and are plotted vs. the concentration of the compounds of the invention. The EC50 of the compounds are calculated using standard methods. All data manipulations are in GraphPad Prism v9 (GraphPad, San Diego, CA).

T2 sequence (P30874 whole entry): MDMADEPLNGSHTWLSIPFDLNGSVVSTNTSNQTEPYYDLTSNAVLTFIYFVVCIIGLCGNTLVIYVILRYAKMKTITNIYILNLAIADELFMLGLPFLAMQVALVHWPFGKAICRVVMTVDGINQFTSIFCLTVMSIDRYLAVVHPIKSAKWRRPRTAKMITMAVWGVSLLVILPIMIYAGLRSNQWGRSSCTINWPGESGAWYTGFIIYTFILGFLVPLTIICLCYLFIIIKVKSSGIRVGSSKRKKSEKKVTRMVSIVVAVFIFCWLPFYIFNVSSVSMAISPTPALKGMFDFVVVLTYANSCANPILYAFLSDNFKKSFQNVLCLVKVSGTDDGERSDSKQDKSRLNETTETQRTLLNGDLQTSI
T1 sequence (P30874 whole entry): as above

SMILES: CCC(C)C(C(CC(=O)N1CCCC1C(OC)C(C)C(=O)NC(C)C(O)c1ccccc1)OC)N(C)C(=O)C(NC(=O)C(C(C)C)N(C)C(=O)OCc1ccc(NC(=O)CNC(=O)[C@H](Cc2ccccc2)NC(=O)CNC(=O)CNC(=O)CCOCCC(=O)NCCNc2ncc(-c3cc(C)cc(F)c3)c(N3CCC(N)CC3)c2-c2nc3ccc(Cl)cc3[nH]2)cc1)C(C)C (stereo in doubt) [Compound 35]
- EC50 ([1]; 2 h): 17.4 nM
- EC50 (SST2; read-out: Internalization EC50): 6.1 nM
- EC50 ([2]; read-out: hSST2 cAMP Avg EC50): 0.58 nM

SMILES: CCC(C)C(C(CC(=O)N1CCCC1C(OC)C(C)C(=O)NC(C)C(O)c1ccccc1)OC)N(C)C(=O)C(NC(=O)C(C(C)C)N(C)C(=O)OCc1ccc(NC(=O)[C@H](CCCNC(N)=O)NC(=O)[C@@H](NC(=O)CCOCCOCCOCCOCCOCCOCCC(=O)NCCNc2ncc(-c3cc(C)cc(F)c3)c(N3CCC(N)CC3)c2-c2nc3ccc(Cl)cc3[nH]2)C(C)C)cc1)C(C)C (stereo in doubt) [Compound 40]
- EC50 ([1]; 2 h): 46.5 nM
- EC50 (SST2; read-out: Internalization EC50): 26.4 nM
- EC50 ([2]; read-out: hSST2 cAMP Avg EC50): 0.36 nM

SMILES: CCC(C)C(C(CC(=O)N1CCCC1C(OC)C(C)C(=O)NC(C)C(O)c1ccccc1)OC)N(C)C(=O)C(NC(=O)C(C(C)C)N(C)C(=O)OCc1ccc(NC(=O)[C@H](CCCNC(N)=O)NC(=O)[C@@H](NC(=O)CCOCCOCCOCCOCCC(=O)NCCNc2ncc(-c3cc(C)cc(F)c3)c(N3CCC(NC)CC3)c2-c2nc3ccc(Cl)cc3[nH]2)C(C)C)cc1)C(C)C (stereo in doubt) [Compound 41]
- EC50 ([1]; 2 h): 27.8 nM
- EC50 (SST2; read-out: Internalization EC50): 24.6 nM
- EC50 ([2]; read-out: hSST2 cAMP Avg EC50): 0.48 nM

SMILES: COc1cc2cc(c1Cl)N(C)C(=O)CC(OC(=O)[C@@H](C)N(C)C(=O)CCSC1CC(=O)N(CC3CCC(C(=O)NCCNc4ncc(-c5cc(C)cc(F)c5)c(N5CCC(N)CC5)c4-c4nc5ccc(Cl)cc5[nH]4)CC3)C1=O)[C@]1(C)OC1[C@@H](C)C1C[C@@](O)(NC(=O)O1)[C@H](OC)/C=C/C=C(\C)C2 (stereo partly drawn) [Compound 6]
- EC50 ([1]; 2 h): 11.7 nM
- EC50 (SST2; read-out: Internalization EC50): 5.3 nM
- EC50 ([2]; read-out: hSST2 cAMP Avg EC50): 0.22 nM

SMILES: COc1cc2cc(c1Cl)N(C)C(=O)CC(OC(=O)[C@@H](C)N(C)C(=O)CCS[C@H]1CC(=O)N(CC3CCC(C(=O)NCCCC[C@H](N)C(=O)NCCNc4ncc(-c5cc(C)cc(F)c5)c(N5CCC(N)CC5)c4-c4nc5ccc(Cl)cc5[nH]4)CC3)C1=O)[C@]1(C)OC1[C@@H](C)C1C[C@@](O)(NC(=O)O1)[C@H](OC)/C=C/C=C(\C)C2 (stereo partly drawn) [Compound 7]
- EC50 ([1]; 2 h): 355 nM
- EC50 (SST2; read-out: Internalization EC50): 21 nM
- EC50 ([2]; read-out: hSST2 cAMP Avg EC50): 0.15 nM

SMILES: COc1cc2cc(c1Cl)N(C)C(=O)CC(OC(=O)[C@@H](C)N(C)C(=O)CCS[C@@H]1CC(=O)N(CC3CCC(C(=O)NCCCC[C@H](N)C(=O)NCCNc4ncc(-c5cc(C)cc(F)c5)c(N5CCC(N)CC5)c4-c4nc5ccc(Cl)cc5[nH]4)CC3)C1=O)[C@]1(C)OC1[C@@H](C)C1C[C@@](O)(NC(=O)O1)[C@H](OC)/C=C/C=C(\C)C2 (stereo partly drawn) [Compound 8]
- EC50 ([1]; 2 h): 447 nM
- EC50 (SST2; read-out: Internalization EC50): 23.6 nM
- EC50 ([2]; read-out: hSST2 cAMP Avg EC50): 0.12 nM

SMILES: COc1cc2cc(c1Cl)N(C)C(=O)CC(OC(=O)[C@@H](C)N(C)C(=O)CCSSCCNC(=O)CN1CCN(CC(=O)O)CCN(CC(=O)NCCNc3ncc(-c4cc(C)cc(F)c4)c(N4CCC(N)CC4)c3-c3nc4ccc(Cl)cc4[nH]3)CC1)[C@]1(C)OC1[C@@H](C)C1C[C@@](O)(NC(=O)O1)[C@H](OC)/C=C/C=C(\C)C2 (stereo partly drawn) [Compound 9]
- EC50 ([1]; 2 h): 379 nM
- EC50 (SST2; read-out: Internalization EC50): 7.7 nM
- EC50 ([2]; read-out: hSST2 cAMP Avg EC50): 0.13 nM

SMILES: CCc1c2c(nc3ccc(OC(=O)NCCOCCOCCOCCOCCC(=O)NCCNc4ncc(-c5cc(C)cc(F)c5)c(N5CCC(N)CC5)c4-c4nc5ccc(Cl)cc5[nH]4)cc13)-c1cc3c(c(=O)n1C2)COC(=O)[C@]3(O)CC [Compound 10, (19S)-10,19-diethyl-19-hydroxy-14,18-dioxo-17-oxa-3,13-diazapentacyclo[11.8.0.0^2,^11.0^4,^9.0^15,^20]henicosa-1(21),2,4(9),5,7,10,15(20)-heptaen-7-yl N-{14-[(2-{[4-(4-aminopiperidin-1-yl)-3-(6-chloro-1H-1,3-benzodiazol-2-yl)-5-(3-fluoro-5-methylphenyl)pyridin-2-yl]amino}ethyl)carbamoyl]-3,6,9,12-tetraoxatetradecan-1-yl}carbamate]
- EC50 ([1]; 2 h treatment, washout, additional 70 h, read-out: H524 EC50): 17.4 nM
- EC50 (SST2; Internalization EC50 (nM)): 3.15 nM
- EC50 ([2]; hSST2 cAMP Avg EC50 (nM)): 0.44 nM

SMILES: CC[C@H](C)[C@@H]([C@@H](CC(=O)N1CCC[C@H]1[C@H](OC)[C@@H](C)C(=O)N[C@@H](Cc1ccccc1)C(=O)O)OC)N(C)C(=O)[C@@H](NC(=O)[C@H](C(C)C)N(C)C(=O)CCOCCOCCOCCOCCC(=O)NCCNc1ncc(-c2cc(C)cc(F)c2)c(N2CCC(N)CC2)c1-c1nc2ccc(Cl)cc2[nH]1)C(C)C [Compound 11]
- EC50 ([1]; 2 h): 105 nM
- EC50 (SST2; read-out: Internalization EC50): 13.4 nM
- EC50 ([2]; read-out: hSST2 cAMP Avg EC50): 0.086 nM

SMILES: COc1cc2cc(c1Cl)N(C)C(=O)CC(OC(=O)[C@@H](C)N(C)C(=O)CCSSCCNC(=O)CNC(=O)C[C@@H](N)C(=O)NCCNc1ncc(-c3cc(C)cc(F)c3)c(N3CCC(N)CC3)c1-c1nc3ccc(Cl)cc3[nH]1)[C@]1(C)OC1[C@@H](C)C1C[C@@](O)(NC(=O)O1)[C@H](OC)/C=C/C=C(\C)C2 (stereo partly drawn) [Compound 13]
- EC50 ([1]; 2 h): 41.8 nM
- EC50 (SST2; read-out: Internalization EC50): 6.3 nM
- EC50 ([2]; read-out: hSST2 cAMP Avg EC50): 0.075 nM

SMILES: COc1cc2cc(c1Cl)N(C)C(=O)C[C@H](OC(=O)[C@@H](C)N(C)C(=O)CCSSCCOCCOCCOCCC(=O)NCCNc1ncc(-c3cc(C)cc(F)c3)c(N3CCC(N)CC3)c1-c1nc3ccc(Cl)cc3[nH]1)[C@]1(C)OC1[C@@H](C)C1C[C@@](O)(NC(=O)O1)[C@H](OC)/C=C/C=C(\C)C2 (stereo partly drawn) [Compound 19, (2S,5S,6S,16E,18E,20R,21S)-11-chloro-21-hydroxy-12,20-dimethoxy-2,5,9,16-tetramethyl-8,23-dioxo-4,24-dioxa-9,22-diazatetracyclo[19.3.1.1^10,14.0^3,5]hexacosa-10,12,14(26),16,18-pentaen-6-yl (2R)-2-{1-[(2-{[4-(4-aminopiperidin-1-yl)-3-(6-chloro-1H-1,3-benzodiazol-2-yl)-5-(3-fluoro-5-methylphenyl)pyridin-2-yl]amino}ethyl)carbamoyl]-N-methyl-3,6,9-trioxa-12,13-dithiahexadecan-16-amido}propanoate]
- EC50 ([1]; 2 h): 20 nM
- EC50 (SST2; read-out: Internalization EC50): 7.1 nM
- EC50 ([2]; read-out: hSST2 cAMP Avg EC50): 0.44 nM
